# Source: US5951473A, “Determination of intracellular sodium and potassium ions by NMR” (Board of Regents, The University of Texas System, priority 1997, dated 1999)
# Entries after “also recorded” stand apart in the source; their conditions may differ.
# Assays:
# [1] = system: kidney sodium; assay: In vivo ^23 Na NMR of kidney during shift reagent infusion; set-up: species or system rat (Sprague-Dawley)
# Protocol: Male Sprage-Dawley rats were prepared for magnetic resonance exam and TmDOTP^5- was infused into animals as described in Example 2. TmDOTP^5- produced well resolved ^23 Na resonances in the kidney with a separation of 7-10 ppm between the extra- and intracellular Na^+ resonances after infusion of about 0.681 mmoles of the SR per Kilogram of Body Weight (KgBW). The inventors also observed a third ^23 Na resonance, broader than the extracellular resonance and shifted to about 35 ppm. This is the first time this resonance has been observed in any SR aided experiment in any organ. After about 10 minutes of TmDOTP^5- infusion (infusion dose 0.147 mmoles/KgBW), one broad shifted resonance became apparent at about 15 ppm. Continued infusion of the SR shifted this resonance further upfield. Simultaneously, another resonance became visible as a high frequency shoulder on the unshifted resonance after about 14 minutes of infusion (infusion dose 0.254 mmoles/KgBW). Finally, the three resonances became clearly resolved after about 17 minutes of infusion (infusion dose 0.334 mmoles/KgBW).
# The single ^23 Na resonance broadened with infusion of this shift reagent and the intracellular Na^+ resonance became evident as a shoulder on the shifted extracellular Na^+ resonance only after 3-5 mmoles of DyTTHA^3- /KgBW had been infused.
# [2] = ^23 Na NMR of blood and urine samples during shift reagent infusion; type: in vivo, rat (Sprague-Dawley); conditions: after DyTTHA^3- infusion
# From the text: ^23 Na spectra obtained from the analysis of the blood and urine samples collected during infusion of either TmDOTP^5- or DyTTHA^3- were compared with the respective in vivo kidney spectrum. […] There was a signal from the urine sample at abut 35 ppm after infusion of DyTTHA^3- also, though there was no distinguishable signal in the corresponding in vivo spectrum (FIG. 3A and FIG. 3B).
# [3] = system: sodium in in vivo liver; assay: In vivo liver ^23 Na NMR with DyTTHA^3- (Blum et al., literature); conditions: dose of Blum et al. versus present methods
# Protocol: This dose is about 4-6 times greater than a typical dose of MRI contrast agent (0.1-0.2 mmole kg^-1 ), such as GdDTPA^2-. The inventors are aware of only one other ^23 Na NMR study of in vivo liver using a SR. Blum, H., Osbakken, M. D. & Johnson, R. G. (1991) Magn. Reson. Med. 18, 348-357 infused 6 mmoles kg^-1 h^-1 of DyTTHA^3- for 60 to 90 minutes to discriminate between intra- and extracellular sodium. This SR dose is 8-12 times larger than the amount of TmDOTP^5- employed using the methods of the present invention. After DyTTHA^3- infusion, Blum, H., Osbakken, M. D. & Johnson, R. G. (1991) Magn. Reson. […] This is extremely important for valid measurement of tissues volumes, relaxation rates, and ^23 Na visibility during physiological interventions.
# [4] = system: rat muscle; conditions: cited from earlier work
# [5] = system: sodium in in vivo liver; conditions: cited from earlier work
# [6] = system: intra- and extracellular sodium of rat liver; assay: In vivo ^23 Na NMR shift experiments in rat liver during shift reagent infusion; conditions: for ^23 Na shift and line broadening in words: DyTTHA^3- versus TmDOTP^5-; for dose required to induce a ^23 Na shift of 5 ppm: body weight; for peak width at half height, extracellular resonance / peak width at half height, intracellular resonance: resonances separated by 5 ppm
# Protocol: (§1) Animal Preparation: Male Sprague-Dawley rats weighing 350-450 g were initially anesthetized by intramuscular injection of a 0.5 ml mixture of ketamine (13 mg/ml) and xylazine (87 mg/ml). Both jugular veins and a carotid artery were cannulated through a midline neck incision. One jugular vein was used to maintain the anesthesia (2 mg/ml ketamine, 0.25 mg/ml xylazine in 5% guaifenesin) at a rate of 2-3 ml/hour, and the other was used to infuse SR. The blood pressure and heart rate were continuously monitored from the carotid artery during the NMR experiments using a Gould transducer and Coulbourn polygraph. A tracheotomy was performed and the rat was connected to a respirator and maintained at a respiration rate of 90 breaths/minute and a tidal volume of 3 cc. The rats were also nephrectomized to eliminate clearance of the shift reagent, except in those animals where SR clearance was measured. Livers were exposed through a subcostal incision and a surface coil was positioned directly on the liver with the animal in a supine position. The animals were maintained at 37° C. using a water recirculating heating pad.
# (§2) SR Infusion: Stock solutions of 80 mM TmDOTP^5- or 400 mM DyTTHA^3- were initially infused at a rate of 2 ml/hr for 6 minutes. […] After achieving a chemical shift difference of 5-7 ppm between the intra- and extracellular sodium resonances, the infusion rate was reduced to 2-3 ml/hr. No Ca^2+ was added during infusion of either SR.
# (§3) NMR Data Collection: All in vivo NMR experiments were performed on a 4.7-T 40-cm GE CSI Omega spectrometer (GE NMR Instruments, Fremont, Calif.). Shimming was performed on the sodium signal. A sodium line width of 35-40 Hz was typical. Both ^23 Na and ^31 P spectra were collected in an interleaved fashion during TmDOTP^5- infusion. […] The coil performance was optimized such that there was less sensitivity loss at the ^31 P frequency as compared to at the ^23 Na frequency.
# (§4) Switching of these parameters and the spectrometer frequency was executed by a script in an automated fashion. To take advantage of the short spin-lattice relaxation time of sodium, two ^23 Na acquisitions were collected between each ^31 P acquisition. Cyclops phase cycling was used for both the nuclei. […] The FIDs were Fourier transformed after base-line correction and a single exponential multiplication corresponding to 10 Hz line broadening for ^23 Na and a 20 Hz line broadening for ^31 P.
# [7] = system: renal phosphate metabolites; assay: In vivo ^31 P NMR of kidney and blood pressure during TmDOTP^5- infusion; set-up: species or system rat (Sprague-Dawley)
# [8] = rat, in vivo
# Protocol: as §1, §2
# (§5) Several key physiological measurements were obtained on a group of animals (n=7) during infusion of TmDOTP^5- using the same protocol as used during all subsequent NMR measurements. […] Excess Ca^2+ was not coadded with the SR in these experiments, unlike in isolated perfused heart experiments where excess Ca^2+ must be coadded with TmDOTP^5- to maintain an extracellular free [Ca^2+ ] of about 1 mM.
# (§6) Serum sodium, potassium, and hemoglobin concentrations as well as arterial pH, pCO2 and pO2 were monitored throughout the infusion protocol using a standard clinical blood gas analyzer.
# [9] = system: in vivo exposed livers; conditions: rat
# Protocol: Animal Preparation: Male Sprague-Dawley rats weighing 350-450 g were initially anesthetized by intramuscular injection of a 0.5 ml mixture of ketamine (13 mg/ml) and xylazine (87 mg/ml). Both jugular veins and a carotid artery were cannulated through a midline neck incision. One jugular vein was used to maintain the anesthesia (2 mg/ml ketamine, 0.25 mg/ml xylazine in 5% guaifenesin) at a rate of 2-3 ml/hour, and the other was used to infuse SR. The blood pressure and heart rate were continuously monitored from the carotid artery during the NMR experiments using a Gould transducer and Coulbourn polygraph. A tracheotomy was performed and the rat was connected to a respirator and maintained at a respiration rate of 90 breaths/minute and a tidal volume of 3 cc. The rats were also nephrectomized to eliminate clearance of the shift reagent, except in those animals where SR clearance was measured. […]
# The resting transmembrane potential (-Em) was measured in in vivo exposed livers using a modified Ling-Gerard ultramicroelectrode Holliday, R. L., Illner, H. P. & Shires, G. T. (1981) J. Surg. […] Serum sodium, potassium, and hemoglobin concentrations as well as arterial pH, pCO2 and pO2 were monitored throughout the infusion protocol using a standard clinical blood gas analyzer.
# [10] = system: rat liver; conditions: in vivo, iv
# Protocol: as §1
# The washout rate of TmDOTP^5- was measured by monitoring the frequency of the shifted ^23 Na peak after stopping the infusion.
# [11] = rat, in vivo; remark: listed apart in the source
# Protocol: Rats with third degree burns covering 40% of the body surface were employed. Adult male Sprague-Dawley rats (300-500 g) were randomly divided into burn (n=7) and sham-burn (n=4) groups. […] Rats were deeply anesthetized with methoxyflurane, shaved, and secured in a template device. A full-thickness scald burn over 40% of the total body surface area was produced by immersing the exposed body surface into a 100° C. water bath for 12 s on the back and sides. The animals were quickly dried after each exposure to avoid additional injury. No postburn analgesics were administered for this model, since the burn injury was a full-thickness burn that destroys all cutaneous nerve endings; as a result, the rats experienced no postburn pain as evidenced by their eating, drinking, moving freely around the cage, and responding to external stimulus. The sham-burn rats were anesthetized and handled in an identical manner except they were exposed to room temperature water. After recovery from inhalation anesthesia, the animals were placed in separate cages and given food and water ad libitum.
# At 24-hr postburn, the animals were anesthetized by intramuscular injection of a 0.5 ml mixture of ketamine (87 mg/ml) and xylazine (13 mg/ml) and were placed on a warming blanket. The left femoral vein, left femoral artery, and left jugular vein were cannulated for supplemental anesthesia for arterial blood pressure measurement and for infusion of the shift reagent, respectively. Heparinized saline, 9 U/ml, was used in the arterial line. A midline laparotomy was performed to expose the liver, and the xiphoid process was removed. Each rat was then secured in a cradle in an upright position for the MRS experiments. A 2.2 cm diameter surface coil dual tuned to 47 MHz for ^23 Na and 72 MHz for ^31 P was positioned over the intersection of the three major lobes and the abdominal incision was sutured in separate layers around the insulated coil leads to prevent fluid and heat loss during NMR data collection. […]
# [12] = live rats, Bansal et al. 1992; cited from earlier work
# [13] = system: rat liver Na^+ (i) and Na^+ (e)
# Protocol: Rats with third degree burns covering 40% of the body surface were employed. Adult male Sprague-Dawley rats (300-500 g) were randomly divided into burn (n=7) and sham-burn (n=4) groups. […] Rats were deeply anesthetized with methoxyflurane, shaved, and secured in a template device. A full-thickness scald burn over 40% of the total body surface area was produced by immersing the exposed body surface into a 100° C. water bath for 12 s on the back and sides. The animals were quickly dried after each exposure to avoid additional injury. […] The sham-burn rats were anesthetized and handled in an identical manner except they were exposed to room temperature water. After recovery from inhalation anesthesia, the animals were placed in separate cages and given food and water ad libitum.
# At 24-hr postburn, the animals were anesthetized by intramuscular injection of a 0.5 ml mixture of ketamine (87 mg/ml) and xylazine (13 mg/ml) and were placed on a warming blanket. The left femoral vein, left femoral artery, and left jugular vein were cannulated for supplemental anesthesia for arterial blood pressure measurement and for infusion of the shift reagent, respectively. Heparinized saline, 9 U/ml, was used in the arterial line. A midline laparotomy was performed to expose the liver, and the xiphoid process was removed. Each rat was then secured in a cradle in an upright position for the MRS experiments. A 2.2 cm diameter surface coil dual tuned to 47 MHz for ^23 Na and 72 MHz for ^31 P was positioned over the intersection of the three major lobes and the abdominal incision was sutured in separate layers around the insulated coil leads to prevent fluid and heat loss during NMR data collection.
# Concurrent ^23 Na and ^31 P spectra were collected using a Nicolet NT 180 spectrometer with an Oxford 4.2 T vertical bore (130 mm) superconducting magnet. The field homogeneity was adjusted first with the ^1 H free induction decay (FID) from the liver and then with the ^23 Na FID for maximum field uniformity. A ^23 Na line width of 40-50 Hz was typical. ^23 Na spectra were generated from the summed FIDs of 100 excitation pulses (40 μs) at 105-ms intervals using 1,024 word data files and a sweep width of ±3000 Hz. The spectra were zero-filled to 4,096 points before Fourier transformation. The relative areas of the Na^+ (i) and Na^+ (e) resonances in the ^23 Na spectra and of the β-ATP and Pi resonances in the phosphorus spectra were determined with the GEMCAP curve analysis program supplied with the Nicolet software.
# After initial baseline spectra were obtained, infusion of TmDOTP^5 was begun at 0.5 mmol kg^-1 h^-1, and the rate was increased slowly to 1.2 or 1.6 mmol kg^-1 h^- over a period of 12 min. […]
# [14] = system: rat brain; conditions: cited from earlier work
# [15] = Bansal et al. 1992; cited from earlier work
# [16] = system: rat liver phosphate metabolites and intracellular pH; assay: In vivo ^31 P NMR (interleaved) of rat liver during shift reagent infusion
# Protocol: as §1, §2, §3, §4
# [17] = Physiological measurements (heart rate, pressure, blood serum and gas values) in rats during TmDOTP^5- infusion; conditions: doses required for baseline resolution of ^23 Na resonances
# Protocol: as §1, §2, §5, §6
compound,measurement,setting,value
"O=C([O-])CN(CCN(CCN(CC(=O)[O-])CC(=O)[O-])CC(=O)[O-])CCN(CC(=O)[O-])CC(=O)[O-].[Dy+3] [DyTTHA^3-, dysprosium(III)triethylenetetraminehexaacetate]",dose at which intracellular Na^+ resonance became evident as a shoulder,[1]; kidney,3-5 mmoles/KgBW
same,dose ratio versus TmDOTP^5- for comparable shift,[1]; kidney,5-8 times
same,resolution of Na^+ resonances in kidney in words,[1]; kidney in vivo,did not produce resolved Na^+ resonances
same,third highly shifted Na^+ resonance in kidney in words,[1]; kidney in vivo,no indication of the existence of the third highly shifted Na^+ resonance
same,shift of ^23 Na signal from urine sample,[2],~35 ppm
same,dose ratio of DyTTHA^3- versus TmDOTP^5-,[3],8-12 times
same,washout t1/2,[4],44 min
same,resolution of sodium resonances in words,[5]; 6 mmoles kg^-1 h^-1 for 60 to 90 minutes,very broad and were not resolved
same,extracellular Na^+ signal shift in words,[5]; Blum et al.,shifted downfield by about the same amount as in the present study
same,"broadening factor of intracellular resonance line-width, DyTTHA^3- versus TmDOTP^5-",[6]; rat liver,~3 factor
same,resolution of intra- and extracellular ^23 Na resonances in words,[6]; rat liver,very broad and not resolved; also recorded: did not improve the resolution of intra- and extracellular resonances
same,^23 Na shift and line broadening in words,[6]; rat liver,much lower ^23 Na shift per unit concentration and more severe line broadening
same,dose required to induce a ^23 Na shift of 5 ppm,[6]; rat liver,3.74 mmol/kg
same,"peak width at half height, extracellular resonance",[6]; rat liver,300 Hz
same,"peak width at half height, intracellular resonance",[6]; rat liver,195 Hz
same,hemodynamic stability during infusion,[6]; versus TmDOTP^5-,hemodynamically more stable
"thulium(III) 1,4,7,10-tetraazacyclododecane-1,4,7,10-tetrakis (methylene phosphonate) [TmDOTP^5-]","intracellular Na^+ resonance intensity with further infusion, kidney",[1]; kidney in vivo,does not change with further SR infusion
same,resolution of Na^+ resonances in kidney in words,[1]; kidney in vivo,well resolved
same,separation between extra- and intracellular Na^+ resonances,"[1]; kidney, about 0.681 mmoles/KgBW",7-10 ppm
same,shift of broad shifted resonance,"[1]; kidney, about 10 minutes, 0.147 mmoles/KgBW",about 15 ppm
same,infusion dose at which second resonance became visible as shoulder,"[1]; kidney, about 14 minutes",0.254 mmoles/KgBW
same,infusion dose at which three resonances became clearly resolved,"[1]; kidney, about 17 minutes",0.334 mmoles/KgBW
same,shift of third ^23 Na resonance,"[1]; kidney, after TmDOTP^5- infusion",about 35 ppm
same,renal high energy phosphate levels,[7]; kidney,unaffected
same,"^31 P resonance areas and chemical shifts, kidney",[7]; kidney during infusion,did not produce any change
same,blood pressure of the animals,[7]; kidney study,small drop in blood pressure
same,arterial pCO2,[8],45±2 mm Hg
same,arterial pH,[8],7.36±0.02
same,arterial pO2,[8],120±8 mm Hg
same,developed pressure during infusion,[8],40±5 mm Hg
same,free Ca^2+ levels in blood serum,[8],relatively small change
same,heart rate during infusion,[8],240±20
same,hemoglobin,[8],13 ± 1 g/dL
same,increase in serum sodium,[8],10 meq/L
same,mean arterial pressure (MAP) during infusion,[8],~70 mm Hg
same,serum potassium,[8],3.5±0.2 meq/L
same,serum sodium after infusion,[8],158±5 meq/L
same,resting transmembrane potential (-Em) of liver,[9],tended to increase during the highest infusion rates
same,washout t1/2,[10],9 min
same,heart rate throughout the study,[11],261±19 beats/min
same,"mean arterial blood pressure (MAP) after infusion, burn group",[11],65±4 mm Hg
same,"mean arterial blood pressure (MAP) after infusion, sham burn group",[11],78±3 mm Hg
same,Ca^2+ release from body stores during infusion,[12],rapidly released from body stores
same,"total dosage needed to produce an equivalent Na^+ shift, burned animals","[13]; burned rats, liver",0.44 ± 0.04 mmol
same,"total dosage needed to produce an equivalent Na^+ shift, control animals","[13]; control rats, liver",0.64 ± 0.08 mmol
same,Na^+ (i) concentration in hepatic cells on infusion,"[13]; rat, in vivo",did not alter Na^+ (i) concentration in hepatic cells
same,^31 P spectra of livers during infusion,"[13]; rat, in vivo",did not change appreciably
same,washout t1/2,[14],37 min
same,crossing of the blood brain barrier,[15],does not cross the blood brain barrier
same,^31 P resonances / phosphate metabolites,[16]; rat liver during infusion,without producing any changes in phosphate metabolite resonances; also recorded: unaffected
same,intracellular pH,"[16]; rat liver, from shift of inorganic phosphate peak",without producing any changes in phosphate metabolite resonances or intracellular pH; also recorded: unaffected
same,dose at which intra- and extracellular ^23 Na resonances were clearly resolved,[6]; rat liver,0.55 mmol/kg
same,intracellular Na^+ peak intensity with further infusion,[6]; rat liver,did not change with further infusion
same,resolution of intra- and extracellular ^23 Na resonances in words,[6]; rat liver,sharp and well resolved; also recorded: baseline resolved peaks
same,^23 Na shift and line broadening in words,[6]; rat liver,larger ^23 Na chemical shift per unit concentration
same,paramagnetic shift of extracellular Na^+,"[6]; rat liver, after 0.65 mmoles kg^-1",approximately 5 ppm
same,dose required to induce a ^23 Na shift of 5 ppm,[6]; rat liver,0.65 mmol/kg
same,"peak width at half height, extracellular resonance",[6]; rat liver,80 Hz
same,"peak width at half height, intracellular resonance",[6]; rat liver,70 Hz
same,liver physiology / tolerability in words,[17],may be safely used in intact animal studies without the co-addition of Ca^2+; also recorded: basic liver physiology is largely unaffected; also recorded: quite non-perturbing to the animal
